This note sets out measurements from paper PMC10045534, “Preparation and Evaluation of 6-Gingerol Derivatives as Novel Antioxidants and Antiplatelet Agents” (Antioxidants, 2023).

The test system of one experiment is washed human platelets. Description: Arachidonic acid-induced platelet aggregation (turbidimetric aggregometer). It is filed as cell-based. Particulars: for IC50: Platelet, 0.05 h, washed human platelets treated 3 min, then arachidonic acid (100 μM), mean ± SEM, n = 3, read-out: Antiplatelet IC50. The procedure: (§1) All bioactivity data processing, including the calculation of inhibition percentage, mean and corresponding standard error of the mean (SEM), and IC50 values, was performed by GraphPad Prism 8.0 (La Jolla, CA, USA). IC50 values were calculated from the sigmoidal dose–response curves obtained by the log(inhibitor) vs. response and variable slope (DPPH assay) or the log(inhibitor) vs. normalised response and variable slope nonlinear regression model. On the results obtained, no statistical evaluation was performed; instead, differences greater than two-fold were considered relevant. Plotting of the antiplatelet and COX-1 inhibitory IC50 values and the linear regression of the data was performed by Microsoft Excel.
Human platelet suspension (3 × 10^8/mL in Tyrode’s buffer) was prepared as previously described. The protocol for this study was approved by the institutional review board of Kaohsiung Medical University Hospital (Kaohsiung City, Taiwan). Platelets pre-treated with DMSO (vehicle control) or test compounds were stimulated with arachidonic acid (AA), and platelet aggregation was measured using turbidimetric aggregometer (Chrono-Log Co., Havertown, PA, USA) at 37 °C under stirring conditions (1200 rpm).

Experiment [1] can be described thus: DPPH free radical scavenging assay. The note with it: for IC50: 30 min, room temperature, MeOH, mean ± SEM, n = 2, read-out: DDPH IC50. The procedure: as §1
DPPH (1,10-diphenyl-2-picrylhydrazyl) was purchased from Thermo Fisher Scientific. DPPH free radical scavenging assay was performed with some modifications based on the method by previous study. Briefly, in a 96-well microplate, microdilutions of samples (100 µL, starting from 200 µM in HPLC grade MeOH) were made and 100 µL of DPPH reagent (100 µM in MeOH) was added. After 30 min at room temperature in the dark, the absorbance was measured at 550 nm using a FluoStar Optima plate reader (software version 2.20R2, BMG Labtech Ortenberg, Germany). For the blank control, MeOH was used. The scavenging activity was calculated as Inhibition (%) = (A0 − As)/A0 × 100, and IC50 values were calculated by GraphPad Prism 8.0 (La Jolla, CA, USA).

A short description of experiment [2]: Oxygen radical absorbance capacity (ORAC). Particulars: 1 µM sample; mean ± SEM, n = 3. The procedure: AAPH ((2,20-Azobis(2-methyl-propionamidine) dihydrochloride) free radical and Trolox standard were purchased from Sigma-Aldrich Hungary. Fluorescein was purchased from Fluka Analytical, Tokyo, Japan. ORAC assay was carried out In a 96-well microplate based on the method from previous study. Briefly, 20 µL of the samples (1 µM final concentration, dissolved in phosphate buffer, pH = 7.4, containing 1% MeOH) were mixed with 60 µL of AAPH (12 mM final concentration, dissolved in phosphate buffer, pH = 7.4) and 120 µL of fluorescein solution (70 nM final concentration, dissolved in phosphate buffer), then the fluorescence was measured (excitation at λ = 485 nm, and emission at λ = 520 nm) through 3 h with 1.5-min cycle intervals with a BMG Labtech FluoStar Optima plate-reader. All experiments were carried out in triplicate, and Trolox was used as standard. The antioxidant capacity is expressed as Trolox Equivalent (TE), as calculated using GraphPad Prism 8.0 (La Jolla, CA, USA).

The next experiment addresses T1, xanthine oxidase (XO) (Bos taurus, UniProt P80457).
T1 construct: purchased Sigma (Merck KGaA)
As to the kind of experiment: Xanthine oxidase inhibition, spectrophotometric. It is filed as biochemical. The note with it: read-out: XO Inhibition (%). The procedure:
The xanthine oxidase (XO) inhibitory activity of the compounds was determined using continuous spectrophotometric rate based on a modified protocol of Sigma. […]. In a 96-well plate, the final reaction mixture consisted of 10 µL of sample (dissolved in DMSO, […] stock solution, 100 µM final), 100 µL of xanthine solution (0.15 mM, pH = 7.4), 140 µL of buffer (potassium phosphate, pH = 7.5) and 50 µL of XO (0.2 units/mL). When measuring the enzyme activity, control buffer was used in place of the sample. Allopurinol was applied as a control. The reaction was initiated by the automatic addition of 50 µL of XO solution. The absorbance of XO-induced uric acid production from xanthine was measured at 290 nm for 3 min in a 96-well plate on a BMG Labtech FluoStar Optima plate reader. The inhibitory percentage values were calculated by using Graph Pad Prism 8.0 (La Jolla, CA, USA).

T1 sequence (P80457 2-1332 limits assumed): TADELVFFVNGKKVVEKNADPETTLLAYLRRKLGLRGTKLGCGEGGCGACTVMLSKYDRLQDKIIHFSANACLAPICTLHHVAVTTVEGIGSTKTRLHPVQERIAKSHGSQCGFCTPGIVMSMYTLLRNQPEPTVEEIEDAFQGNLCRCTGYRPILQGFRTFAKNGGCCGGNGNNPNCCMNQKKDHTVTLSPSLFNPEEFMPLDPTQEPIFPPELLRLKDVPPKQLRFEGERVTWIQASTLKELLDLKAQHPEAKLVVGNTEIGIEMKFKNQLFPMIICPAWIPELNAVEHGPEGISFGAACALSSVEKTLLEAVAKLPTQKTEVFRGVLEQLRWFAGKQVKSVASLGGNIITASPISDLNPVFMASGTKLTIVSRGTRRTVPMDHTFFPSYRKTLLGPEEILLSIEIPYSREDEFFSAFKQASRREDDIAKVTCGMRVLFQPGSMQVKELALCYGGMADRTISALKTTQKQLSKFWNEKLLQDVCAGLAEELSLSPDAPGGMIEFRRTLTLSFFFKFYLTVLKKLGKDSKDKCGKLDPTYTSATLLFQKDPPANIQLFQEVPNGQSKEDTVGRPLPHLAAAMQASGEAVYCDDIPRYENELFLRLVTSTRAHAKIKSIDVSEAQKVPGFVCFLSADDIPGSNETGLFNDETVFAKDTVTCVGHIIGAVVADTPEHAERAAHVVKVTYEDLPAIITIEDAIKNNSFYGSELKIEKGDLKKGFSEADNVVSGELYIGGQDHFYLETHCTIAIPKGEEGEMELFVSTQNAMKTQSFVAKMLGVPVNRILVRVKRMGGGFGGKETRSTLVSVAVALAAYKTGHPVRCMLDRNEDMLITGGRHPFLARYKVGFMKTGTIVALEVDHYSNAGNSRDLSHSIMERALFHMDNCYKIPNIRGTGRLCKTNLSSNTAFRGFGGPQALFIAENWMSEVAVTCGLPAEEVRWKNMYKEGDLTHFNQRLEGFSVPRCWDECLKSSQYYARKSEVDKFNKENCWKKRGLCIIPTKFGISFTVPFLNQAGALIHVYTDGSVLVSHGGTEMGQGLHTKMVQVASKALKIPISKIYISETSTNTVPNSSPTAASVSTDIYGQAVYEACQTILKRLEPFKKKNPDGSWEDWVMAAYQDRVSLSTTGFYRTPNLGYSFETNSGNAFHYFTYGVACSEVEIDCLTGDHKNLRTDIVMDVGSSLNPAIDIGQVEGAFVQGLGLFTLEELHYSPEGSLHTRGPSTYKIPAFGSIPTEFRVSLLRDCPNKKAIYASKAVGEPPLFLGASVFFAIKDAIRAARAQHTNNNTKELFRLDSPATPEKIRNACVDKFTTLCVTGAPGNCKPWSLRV

As to `CCCCC[C@H](O)CC(=O)CCc1ccc(O)c(OC)c1` [Compound 1, (S)-5-hydroxy-1-(4-hydroxy-3-methoxyphenyl)decan-3-one], in the experiment on washed human platelets (AA-induced platelet aggregation, ratio of IC50 values), the “times weaker antiplatelet effect than the most promising compounds” value was “up to 22 times”. For the same molecule, the IC50 came to 45.9 ± 5.1 µM with washed human platelets and 8.92 ± 0.46 µM in experiment [1]. Besides, the “ORAC TE” value in experiment [2] was 1.30 ± 0.04 Trolox equivalents (TE). Further, on xanthine oxidase (XO), the inhibition at 100 µM was under 5%.
With `CCCCC/C=C/C(=O)CCc1ccc(O)c(OC)c1` [Compound 2, 6-shogaol], the IC50 came to 2.8 ± 0.5 µM with washed human platelets and 11.4 ± 0.49 µM in experiment [1]. Further, the “ORAC TE” value in experiment [2] is listed as 1.10 ± 0.03 Trolox equivalents (TE). Besides, the inhibition at 100 µM on xanthine oxidase (XO) was under 5%.
Take `CCCCCCCC(=O)CCc1ccc(O)c(OC)c1` [Compound 3, 4,5-dihydro-6-shogaol]: the IC50 in the experiment with washed human platelets was found to be 2.1 ± 1 µM; in experiment [1] it was 9.43 ± 0.16 µM. Also, the “ORAC TE” value in experiment [2] is 1.36 ± 0.02 Trolox equivalents (TE). Besides, the inhibition at 100 µM at xanthine oxidase (XO) was under 5%.
The matching figures for `CCCCCCCC(CCc1ccc(O)c(OC)c1)=NO` [Compound 4, 1-(4-hydroxy-3-methoxyphenyl)decan-3-one oxime]: 5.2 ± 0.4 µM, 8.56 ± 0.07 µM, 0.47 ± 0.09 Trolox equivalents (TE) and 10.6 ± 2.3%.
For `CCCCC[C@H](O)C[C@H](O)CCc1ccc(O)c(OC)c1` [Compound 5, (3R,5S)-1-(4-hydroxy-3-methoxyphenyl)decane-3,5-diol], in that order: 51.7 ± 2.7 µM, 6.51 ± 0.28 µM, 2.30 ± 0.05 Trolox equivalents (TE) and under 5%.
The matching figures for `CCCCC[C@H](O)C[C@@H](O)CCc1ccc(O)c(OC)c1` [Compound 6, (3S,5S)-1-(4-hydroxy-3-methoxyphenyl)decane-3,5-diol]: 45.1 ± 6 µM, 13.82 ± 0.03 µM, 1.12 ± 0.03 Trolox equivalents (TE) and under 5%.
For the molecule `CCCCCc1cc(CCc2ccc(O)c(OC)c2)[nH]n1` [Compound 14, 2-methoxy-4-(2-(3-pentyl-1H-pyrazol-5-yl)ethyl)phenol], the IC50 in the experiment with washed human platelets was found to be 4.1 ± 1.2 µM; in experiment [1] it was 16.2 ± 0.46 µM. In addition, in experiment [2], the “ORAC TE” value is reported as 0.44 ± 0.07 Trolox equivalents (TE). Also, the inhibition at 100 µM at xanthine oxidase (XO) was 10.1 ± 1.65%.
In the case of `CCCCCc1cc(CCc2ccc(O)cc2)[nH]n1` [Compound 15, 4-(2-(3-pentyl-1H-pyrazol-5-yl)ethyl)phenol], the half-maximal inhibitory concentration (IC50) in the experiment with washed human platelets is over 100 µM; in experiment [1] it was over 200 µM. For the same molecule, in experiment [1], the “DPPH scavenging activity (in words)” value was “inactive”. The “ORAC TE” value in experiment [2] was 1.00 ± 0.02 Trolox equivalents (TE). Further, the inhibition at 100 µM at xanthine oxidase (XO) stood at 12.3 ± 0.9%.
As for `CCCCCc1cc(/C=C/c2ccc(O)cc2)[nH]n1` [Compound 16, (E)-4-(2-(3-pentyl-1H-pyrazol-5-yl)vinyl)phenol], the figures for the IC50 (in the experiment on washed human platelets; in experiment [1]) were 3.5 ± 0.9 µM and 19 ± 1.63 µM, respectively. Besides, the “ORAC TE” value in experiment [2] was 2.88 ± 0.16 Trolox equivalents (TE). For the same molecule, the inhibition at 100 µM on xanthine oxidase (XO) came to 16 ± 4.05%.
For `CCCCCc1cc(/C=C/c2ccc(O)c(OC)c2)on1` [Compound 17, (E)-2-methoxy-4-(2-(3-pentylisoxazol-5-yl)vinyl)phenol], in that order: 3.1 ± 0.9 µM, 8.13 ± 0.21 µM, 0.77 ± 0.20 Trolox equivalents (TE) and under 5%.
Take `CCCCCc1cc(/C=C/c2ccc(O)cc2)on1` [Compound 18, (E)-4-(2-(3-pentylisoxazol-5-yl)vinyl)phenol]: the IC50 in the experiment on washed human platelets was 32 ± 10.1 µM. Besides, in experiment [1], the “DPPH scavenging activity (in words)” value was “inactive” and the IC50 is over 100 µM. In addition, the “ORAC TE” value in experiment [2] was 1.76 ± 0.06 Trolox equivalents (TE). Besides, the inhibition at 100 µM at xanthine oxidase (XO) is under 5%.
Turning to `CCCCCCCNC(=O)CCc1ccc(O)c(OC)c1` [Compound 22], in the experiment on washed human platelets (AA-induced platelet aggregation), the “antiplatelet activity (in words)” value was “only moderate activity”. Further, the half-maximal inhibitory concentration (IC50) in the experiment on washed human platelets was 35.9 ± 23.7 µM; in experiment [1], 14.1 ± 0.21 µM. Besides, the “ORAC TE” value in experiment [2] is 1.62 ± 0.004 Trolox equivalents (TE). Further, on xanthine oxidase (XO), the inhibition at 100 µM was under 5%.
